Data reported in PubChem BioAssay AID1259411 (Chemical Carcinogenesis Research Information System (CCRIS), 2018).
Calls of active or inactive are those of the source. No rule for the calls is given here.

Tested on: rodent carcinogenicity bioassays, tumor incidence
Assay: CCRIS carcinogenicity studies
In short: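 Archive of carcinogenicity, mutagenicity, tumor promotion and tumor inhibition results drawn from journals, NCI reports and other sources, expert-reviewed; covers 1985-2011 and is no longer updated.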

## CCCCCc1cc(O)c2c(c1)OC(C)(C)[C@@H]1CCC(C)=C[C@@H]21
Species: MOUSE, Strain/Sex: B6C3F1/FEMALE, Route: GAVAGE, Dose: 0, 125, 250, 500 MG/KG BW IN CORN OIL FOR 105-106 WK (STUDY DURATION: 105-106 WK), Dose: 0, 125, 250, 500 MG/KG BW IN CORN OIL FOR 105-106 WK (STUDY DURATION: 105-106 WK), Tumor Site: Type of Lesion: THYROID GLAND: FOLLICULAR CELL ADENOMA
  carcinogen call: equivocal
Species: MOUSE, Strain/Sex: B6C3F1/MALE, Route: GAVAGE, Dose: 0, 125, 250, 500 MG/KG BW IN CORN OIL FOR 104-105 WK (STUDY DURATION: 104-105 WK), Dose: 0, 125, 250, 500 MG/KG BW IN CORN OIL FOR 104-105 WK (STUDY DURATION: 104-105 WK), Tumor Site: Type of Lesion: THYROID GLAND: FOLLICULAR CELL ADENOMA
  carcinogen call: equivocal
Species: RAT, Strain/Sex: F344/FEMALE, Route: GAVAGE, Dose: 0, 12.5, 25, 50 MG/KG BW IN CORN OIL FOR 104-105 WK (STUDY DURATION: 104-105 WK), Dose: 0, 12.5, 25, 50 MG/KG BW IN CORN OIL FOR 104-105 WK (STUDY DURATION: 104-105 WK)
  carcinogen call: inactive; negative
Species: RAT, Strain/Sex: F344/MALE, Route: GAVAGE, Dose: 0, 12.5, 25, 50 MG/KG BW IN CORN OIL FOR 104-105 WK (STUDY DURATION: 104-105 WK), Dose: 0, 12.5, 25, 50 MG/KG BW IN CORN OIL FOR 104-105 WK (STUDY DURATION: 104-105 WK)
  carcinogen call: inactive; negative

## OC1c2cccc3c4ccccc4c4c5ccccc5cc(c4c23)C1O (stereo not drawn)
Species: MOUSE, Strain/Sex: SWISS/FEMALE, Route: DERMAL, Dose: 0, 1, 4 NMOL IN 100 µL ACETONE 2/WK FOR 40 WK (STUDY DURATION: 48 WK), Dose: 0, 1, 4 NMOL IN 100 µL ACETONE 2/WK FOR 40 WK (STUDY DURATION: 48 WK)
  carcinogen call: inactive; negative

## Cn1c(N)nc2c3ccc(=O)[nH]c3ccc21
Species: MOUSE, Strain/Sex: CD-1/FEMALE, Route: INTRAPERITONEAL, ORAL, Dose: 0, 5 µL OF A 21.7 MG/ML SOLUTION IN DMSO ON DAYS 1, 3, 5, 7, 10, 13, 17, 21, 24 AND 28 OF LIFE THEN 2/WK TO WK 10 FOLLOW, Tumor Site: Type of Lesion: LIVER: CARCINOMA
  carcinogen call: active; positive
Species: MOUSE, Strain/Sex: CD-1/MALE, Route: INTRAPERITONEAL, ORAL, Dose: 0, 5 µL OF A 21.7 MG/ML SOLUTION IN DMSO ON DAYS 1, 3, 5, 7, 10, 13, 17, 21, 24 AND 28 OF LIFE THEN 2/WK TO WK 10 FOLLOW
  carcinogen call: inactive; negative
Species: RAT, Strain/Sex: F344/MALE, Route: INTRARECTAL, Dose: 0, 54.8 MG/KG IN 1.7 ML/KG DMSO INFUSED 3/WK FOR 2 MO THEN 2/WK FOR DURATION OF STUDY (STUDY DURATION: 21 MO)
  carcinogen call: inactive; negative

## O[C@@H]1[C@@H]2O[C@@H]2c2c(cc3ccc4cccc5ccc2c3c45)[C@H]1O
Species: MOUSE, Strain/Sex: ICR/FEMALE, Route: INTRAPERITONEAL, Dose: 0, 25 NMOL (TOTAL DOSE) ADMINISTERED IN DOSES OF 1/7, 2/7, AND 4/7 ON DAYS 1, 7, AND 15 OF LIFE, RESPECTIVELY (STUDY DUR, Tumor Site: Type of Lesion: LUNG: TUMOR
  carcinogen call: active; positive
Species: MOUSE, Strain/Sex: ICR/FEMALE, Route: INTRAPERITONEAL, Dose: 0;25 NMOL TOTAL DOSE INJECTED IN DOSES OF 1/7 ON DAY 1, 2.7 ON DAY 8, AND 4/7 ON DAY 15 OF LIFE (STUDY DURATION: 35 WK), Tumor Site: Type of Lesion: LUNG: TUMOR
  carcinogen call: active; positive
Species: MOUSE, Strain/Sex: ICR/MALE, Route: INTRAPERITONEAL, Dose: 0, 25 NMOL TOTAL DOSE INJECTED IN DOSES OF 1/7 ON DAY 1, 2/7 ON DAY 8, AND 4/7 ON DAY 15 OF LIFE (STUDY DURATION: 35 WK), Tumor Site: Type of Lesion: LUNG:TUMOR
  carcinogen call: active; positive
Species: MOUSE, Strain/Sex: ICR/MALE, Route: INTRAPERITONEAL, Dose: 0, 25 NMOL (TOTAL DOSE) ADMINISTERED IN DOSES OF 1/7, 2/7, AND 4/7 ON DAYS 1, 7, AND 15 OF LIFE, RESPECTIVELY (STUDY DUR, Tumor Site: Type of Lesion: LUNG: TUMOR
  carcinogen call: active; positive
Species: RAT, Strain/Sex: STRAIN-CD/FEMALE, Route: INJECTION, Dose: 0, 2.04 UMOL IN 0.1 ML DMSO 3 INJECTIONS INTO MAMMARY TISSUE BENEATH THE 3 LEFT THORACIC NIPPLES ON THE NEXT DAY PROCEDU, Tumor Site: Type of Lesion: MAMMARY GLAND: TUMOR
  carcinogen call: active; positive
Species: RAT, Strain/Sex: STRAIN-CD/FEMALE, Route: INJECTION, Dose: 0, 2.04 UMOL IN 0.1 ML DMSO INJECTED BENEATH EACH THE THREE LEFT THORACIC NIPPLES THEN ON THE NEXT DAY BENEATH EACH OF T, Tumor Site: Type of Lesion: MAMMARY GLAND: TUMOR
  carcinogen call: active; positive

## OC[C@H]1O[C@H](O[C@]2(CCl)O[C@H](CCl)[C@@H](O)[C@@H]2O)[C@H](O)[C@@H](O)[C@H]1Cl
Species: MOUSE, Strain/Sex: CD-1/FEMALE, Route: ORAL, Dose: 0, 3000, 10,000, 30,000 PPM IN DIET FOR 104 WK (STUDY DURATION: 104 WK), Dose: 0, 3000, 10,000, 30,000 PPM IN DIET FOR 104 WK (STUDY DURATION: 104 WK)
  carcinogen call: inactive; negative
Species: MOUSE, Strain/Sex: CD-1/MALE, Route: ORAL, Dose: 0, 3000, 10,000, 30,000 PPM IN DIET FOR 104 WK (STUDY DURATION: 104 WK), Dose: 0, 3000, 10,000, 30,000 PPM IN DIET FOR 104 WK (STUDY DURATION: 104 WK)
  carcinogen call: inactive; negative
Species: RAT, Strain/Sex: SPRAGUE-DAWLEY/FEMALE, Route: ORAL, Dose: 0, 0.3, 1.0, 3.0% IN DIET FOR 104 WK (STUDY DURATION: 104 WK), Dose: 0, 0.3, 1.0, 3.0% IN DIET FOR 104 WK (STUDY DURATION: 104 WK)
  carcinogen call: inactive; negative
Species: RAT, Strain/Sex: SPRAGUE-DAWLEY/MALE, Route: ORAL, Dose: 0, 0.3, 1.0, 3.0% IN DIET FOR 104 WK (STUDY DURATION: 104 WK), Dose: 0, 0.3, 1.0, 3.0% IN DIET FOR 104 WK (STUDY DURATION: 104 WK)
  carcinogen call: inactive; negative

## CN(C)c1ccc(N=NS(=O)(=O)O)cc1
Species: MOUSE, Strain/Sex: B6C3F1/FEMALE, Route: ORAL, Dose: 0, 0.05, 0.10% OF DIET, TWA, Dose: 0, 0.05, 0.10% OF DIET, TWA
  carcinogen call: inactive; negative
Species: MOUSE, Strain/Sex: B6C3F1/MALE, Route: ORAL, Dose: 0, 0.10, 0.19% OF DIET, TWA, Dose: 0, 0.10, 0.19% OF DIET, TWA
  carcinogen call: inactive; negative
Species: RAT, Strain/Sex: F344/FEMALE, Route: ORAL, Dose: 0, 0.05, 0.10% OF DIET, TWA, Dose: 0, 0.05, 0.10% OF DIET, TWA
  carcinogen call: inactive; negative
Species: RAT, Strain/Sex: F344/MALE, Route: ORAL, Dose: 0, 0.05, 0.10% OF DIET, TWA, Dose: 0, 0.05, 0.10% OF DIET, TWA
  carcinogen call: inactive; negative

## Clc1ccc(C(c2ccc(Cl)cc2)C(Cl)(Cl)Cl)cc1
Species: MOUSE, Strain/Sex: B6AKF1/MALE,FEMALE, Route: GAVAGE/ORAL, Dose: 46.4 MG/KG FROM D 7-28 OF LIFE THEN 140 PPM IN DIET, Tumor Site: Type of Lesion: LIVER: HEPATOMA
  carcinogen call: active; positive
Species: MOUSE, Strain/Sex: B6C3F1/FEMALE, Route: ORAL, Dose: 0, 87, 175 PPM IN DIET, TWA, Dose: 0, 87, 175 PPM IN DIET, TWA
  carcinogen call: inactive; negative
Species: MOUSE, Strain/Sex: B6C3F1/MALE,FEMALE, Route: GAVAGE/ORAL, Dose: 46.4 MG/KG FROM D 7-28 OF LIFE THEN 140 PPM IN DIET, Tumor Site: Type of Lesion: LIVER: HEPATOMA
  carcinogen call: active; positive
Species: MOUSE, Strain/Sex: B6C3F1/MALE, Route: ORAL, Dose: 0, 22, 90 PPM IN DIET, TWA, Dose: 0, 22, 90 PPM IN DIET, TWA
  carcinogen call: inactive; negative
Species: MOUSE, Strain/Sex: BALB/MALE, Route: ORAL, Dose: 0, 175 PPM IN ACETONE ADDED TO DIET FOR 8 WK THEN BY 125 PPM FOR 8 WK AND 100 PPM FOR 59 WK (STUDY DURATION: 75 WK), Tumor Site: Type of Lesion: LIVER: HEPATOCELLULAR ADENOMA, HEPATOCELLULAR CARCINOMA
  carcinogen call: active; positive
Species: MOUSE, Strain/Sex: CF-1/MALE,FEMALE, Route: DIET, Dose: 0, 50, 100 PPM FOR 2 YR, Tumor Site: Type of Lesion: LIVER
  carcinogen call: active; positive
Species: MOUSE, Strain/Sex: CF-1/MALE,FEMALE, Route: DIET, Dose: 100 PPM FOR 110 WK, Tumor Site: Type of Lesion: LIVER
  carcinogen call: active; positive
Species: RAT, Route: ORAL, Tumor Site: Type of Lesion: LIVER
  carcinogen call: active; positive
Species: RAT, Strain/Sex: OSBORNE-MENDEL/FEMALE, Route: ORAL, Dose: 0, 210, 420 PPM IN DIET, TWA, Dose: 0, 210, 420 PPM IN DIET, TWA
  carcinogen call: inactive; negative
Species: RAT, Strain/Sex: OSBORNE-MENDEL/MALE, Route: ORAL, Dose: 0, 321, 642 PPM IN DIET, TWA, Dose: 0, 321, 642 PPM IN DIET, TWA
  carcinogen call: inactive; negative

## COc1c(N2C[C@@H]3CCCN[C@@H]3C2)c(F)cc2c(=O)c(C(=O)O)cn(C3CC3)c12
Species: RAT, Strain/Sex: WISTAR/MALE, FEMALE, Route: GAVAGE, Dose: 0, 500 MG/KG BW/D FOR 38 WK (STUDY DURATION: 38 WK)
  carcinogen call: inactive; negative
